{"source": "patent US10654818B2", "about": "“Furane derivatives as inhibitors of ATAD2” (BAYER PHARMA AKTIENGESELLSCHAFT, priority 2015, dated 2020)"}
{"molecular_target": "T1, recombinant, N-terminally GST-tagged ATAD2 bromodomain amino acids 981-1108 (Homo sapiens, UniProt Q6PL18)", "T1 construct": "ATAD2 bromodomain amino acids 981-1108; made in house; host or cells: E. coli", "T1 sequence (Q6PL18 981-1108)": "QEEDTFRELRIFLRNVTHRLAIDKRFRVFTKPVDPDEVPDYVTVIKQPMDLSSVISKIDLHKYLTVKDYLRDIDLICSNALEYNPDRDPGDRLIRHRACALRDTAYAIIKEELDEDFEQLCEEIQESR", "test": "TR-FRET assay: disruption of the interaction between ATAD2 and acetylated Histone H4 (Ac-H4) peptide", "format": "binding", "details": "inhibition of ATAD2/Ac-H4 complex formation; 10 nM ATAD2, 50 nM Ac-H4 peptide", "excerpt": "The ability of the compounds described in the present invention to disrupt the interaction between ATAD2 and acetylated Histone H4 (Ac-H4) was used as quantitative measure of their ATAD2-binding affinities.\nTo this end a TR-FRET assay which detects the binding of an Ac-H4-derived synthetic peptide (purchased from e.g. Biosyntan (Berlin, Germany)) of sequence HSGRGKGGGGKGLGK(Ac)GGAKRHRK-Biotin to recombinant, N-terminally GST-tagged ATAD2 bromodomain amino acids 981-1108. The protein was produced in-house via E. coli expression followed by GSH-Sepharose affinity- and Superdex S200-size exclusion chromatography purification.\nTypically, 11 different concentrations of each compound (0.1 nM, 0.33 nM, 1.1 nM, 3.8 nM, 13 nM, 44 nM, 0.15 μM, 0.51 μM, 1.7 μM, 5.9 μM and 20 μM) were tested in duplicate within the same microtiter plate. To this end, 100-fold concentrated compound solutions (in DMSO) were previously prepared with a Precision Pippeting System (BioTek) by serial dilution (1:3.4) of 2 mM stocks in clear, low-volume 384-well microtiter source plates (Greiner Bio-One). Subsequently, 50 nl of compounds were transferred into black, low-volume test plates from the same supplier using a Hummingbird capillary based liquid handling instrument (Digilab). Tests were started by the addition of 2 μl of 2.5-fold concentrated ATAD2 solution (25 nM=10 nM final concentration in the 5 μl assay volume) in aqueous assay buffer [50 mM HEPES pH 7.5, 50 mM potassium fluoride (KF), 100 mM sodium chloride (NaCl), 0.25 mM CHAPS, 0.05% bovine serum albumine (BSA) and 1 mM dithiothreitol (DTT)] to the compounds in the test plate with a Multidrop dispenser (Thermo-Fisher). Test plates were then incubated 10′ at 22° C., in order to allow pre-equilibration of putative compound-ATAD2 complexes. Subsequently, 3 μl of a 1.67-fold concentrated solution containing Ac-H4 peptide (83.5 nM=50 nM final concentration) and TR-FRET detection reagents [16.7 nM Anti-GST-XL665 (Cisbio), =10 nM final concentration and 4.17 nM Lance EU W-1024 Streptavidin Europium Chelate (Perkin-Elmer)=2.5 nM final concentration were dispensed into the plates.\nThe mixture was further incubated in the dark for 1 hour at 22° C. Finally the inhibition of the formation of ATAD2/Ac-H4 complexes was assessed by measurement of the resonance energy transfer from the Streptavidin-Eu-Chelate to the anti-GST-XL665 antibody present in the reaction. To this end, the fluorescence emissions at 622 nm and 665 nm after excitation at 337 nm were measured in a TR-FRET reader, e.g. a Rubystar or Pherastar (both from BMG Lab Technologies) or a Viewlux (Perkin-Elmer) and the ratio of the emissions at 665 nm and at 622 nm was taken as indicator for the amount of ATAD2/Ac-H4 complexes in equilibrium.\nThe data were normalized using two sets of control wells (16 each). The first accounted for 100% ATAD2/Ac-H4 binding (0% inhibition), and contained all reaction components but DMSO instead of inhibitors. The second represented 0% ATAD2/Ac-H4 binding (100% inhibition), and included all assay components except ATAD2. IC50 values were calculated by fitting the normalized inhibition data to a 4-parameter logistic equation using either Screener software (Genedata) or a Bayer-proprietary analysis software.", "units": {"IC50": "nM"}}
{"smiles": "Cc1ccc([C@@H](C)NCc2ccc(-c3ccc(Cl)c(C(=O)N[C@@H](CO)Cc4ccc(C#N)cc4N)c3)o2)cc1", "note": "[Example 41, N-[(2R)-1-(2-amino-4-cyanophenyl)-3-hydroxypropan-2-yl]-2-chloro-5-[5-({[(1R)-1-(4-methylphenyl)ethyl]amino}methyl)-2-furyl]benzamide]", "IC50": 759}
{"smiles": "CC(=O)NC[C@@H](Cc1ccc(C#N)cc1)NC(=O)c1cc(-c2ccc(CN[C@H](C)c3ccc(C)cc3)o2)ccc1Cl", "note": "[Example 43, N-[(2R)-1-acetamido-3-(4-cyanophenyl)propan-2-yl]-2-chloro-5-[5-({[(1R)-1-(4-methylphenyl)ethyl]amino}methyl)-2-furyl]benzamide]", "IC50": 1710}
{"smiles": "Cc1ccc([C@@H](C)NCc2ccc(-c3ccc(Cl)c(C(=O)N[C@@H](CO)Cc4cccc(C#N)c4)c3)o2)cc1", "note": "[Example 44, 2-chloro-N-[(2R)-1-(3-cyanophenyl)-3-hydroxypropan-2-yl]-5-[5-({[(1R)-1-(4-methylphenyl)ethyl]amino}methyl)-2-furyl]benzamide]", "IC50": 1600}
{"smiles": "Cc1ccc([C@@H](C)NCc2ccc(-c3ccc(Cl)c(C(=O)N[C@H](Cc4ccc(C#N)cc4)[C@H](O)CC(C)C)c3)o2)cc1", "note": "[Example 45, 2-chloro-N-[(2R,3R)-1-(4-cyanophenyl)-3-hydroxy-5-methylhexan-2-yl]-5-[5-({[(1R)-1-(4-methylphenyl)ethyl]amino}methyl)-2-furyl]benzamide]", "IC50": 1800}
{"smiles": "Cc1ccc([C@@H](C)NCc2ccc(-c3ccc(Cl)c(C(=O)N[C@H](Cc4ccc(C#N)cc4)[C@@H](O)CC(C)C)c3)o2)cc1", "note": "[Example 46, 2-chloro-N-[(2R,3S)-1-(4-cyanophenyl)-3-hydroxy-5-methylhexan-2-yl]-5-[5-({[(1R)-1-(4-methylphenyl)ethyl]amino}methyl)-2-furyl]benzamide]", "IC50": 1100}
{"smiles": "Cc1ccc([C@@H](C)NCc2ccc(-c3ccc(Cl)c(C(=O)N[C@@H](CO)Cc4ccncc4)c3)o2)cc1", "note": "[Example 47, 2-chloro-N-[(2R)-1-hydroxy-3-(pyridin-4-yl)propan-2-yl]-5-[5-({[(1R)-1-(4-methylphenyl)ethyl]amino}methyl)-2-furyl]benzamide]", "IC50": 2100}
{"smiles": "Cc1ccc([C@@H](C)NCc2ccc(-c3ccc(Cl)c(C(=O)N[C@@H](CO)Cc4ccc(C(N)=O)cc4)c3)o2)cc1", "note": "[Example 48, N-[(2R)-1-(4-carbamoylphenyl)-3-hydroxypropan-2-yl]-2-chloro-5-[5-({[(1R)-1-(4-methylphenyl)ethyl]amino}methyl)-2-furyl]benzamide]", "IC50": 1080}
{"smiles": "Cc1ccc([C@@H](C)NCc2ccc(-c3ccc(Cl)c(C(=O)N[C@H](Cc4ccc(C#N)cc4)CN4CCCC4)c3)o2)cc1", "note": "[Example 49, 2-chloro-N-[(2R)-1-(4-cyanophenyl)-3-(pyrrolidin-1-yl)propan-2-yl]-5-[5-({[(1R)-1-(4-methylphenyl)ethyl]amino}methyl)-2-furyl]benzamide]", "IC50": 1760}
{"smiles": "COC(=O)C[C@@H](Cc1ccc(C#N)cc1)NC(=O)c1cc(-c2ccc(CN[C@H](C)c3ccc(C)cc3)o2)ccc1Cl", "note": "[Example 50, methyl (3R)-3-({2-chloro-5-[5-({[(1R)-1-(4-methylphenyl)ethyl]amino}methyl)-2-furyl]benzoyl}amino)-4-(4-cyanophenyl)butanoate]", "IC50": 1260}
{"smiles": "COC(=O)c1ccc(C[C@H](CO)NC(=O)c2cc(-c3ccc(CN[C@H](C)c4ccc(C)cc4)o3)ccc2Cl)cc1", "note": "[Example 51, methyl 4-[(2R)-2-({2-chloro-5-[5-({[(1R)-1-(4-methylphenyl)ethyl]amino}methyl)-2-furyl]benzoyl}amino)-3-hydroxypropyl]benzoate]", "IC50": 810}
{"smiles": "Cc1ccc([C@@H](C)NCc2ccc(-c3ccc(Cl)c(C(=O)N[C@@H](CNS(C)(=O)=O)Cc4ccc(C#N)cc4)c3)o2)cc1", "note": "[Example 54, 2-chloro-N-{(2R)-1-(4-cyanophenyl)-3-[(methylsulfonyl)amino]propan-2-yl}-5-[5-({[(1R)-1-(4-methylphenyl)ethyl]amino}methyl)-2-furyl]benzamide]", "IC50": 705}
{"smiles": "Cc1ccc([C@@H](C)NCc2ccc(-c3ccc(Cl)c(C(=O)N[C@@H](CNCC(=O)N4CCNCC4)Cc4ccc(C#N)cc4)c3)o2)cc1", "note": "[Example 55, 2-chloro-N-[(2R)-1-(4-cyanophenyl)-3-{[2-oxo-2-(piperazin-1-yl)ethyl]amino}propan-2-yl]-5-[5-({[(1R)-1-(4-methylphenyl)ethyl]amino}methyl)-2-furyl]benzamide]", "IC50": 274}
{"smiles": "Cc1ccc([C@@H](C)NCc2ccc(-c3ccc(Cl)c(C(=O)N[C@@H](CNC(=O)C4CCNCC4)Cc4ccc(C#N)cc4)c3)o2)cc1", "note": "[Example 56, N-[(2R)-2-({2-chloro-5-[5-({[(1R)-1-(4-methylphenyl)ethyl]amino}methyl)-2-furyl]benzoyl}amino)-3-(4-cyanophenyl)propyl]piperidine-4-carboxamide]", "IC50": 510}
{"smiles": "Cc1ccc([C@@H](C)NCc2ccc(-c3ccc(Cl)c(C(=O)N[C@@H](CNC(=O)CC4CCNCC4)Cc4ccc(C#N)cc4)c3)o2)cc1", "note": "[Example 57, 2-chloro-N-{(2R)-1-(4-cyanophenyl)-3-[(piperidin-4-ylacetyl)amino]propan-2-yl}-5-[5-({[(1R)-1-(4-methylphenyl)ethyl]amino}methyl)-2-furyl]benzamide]", "IC50": 520}
{"smiles": "Cc1ccc([C@@H](C)NCc2ccc(-c3ccc(Cl)c(C(=O)N[C@@H](CNC4CCN(C)CC4)Cc4ccc(C#N)cc4)c3)o2)cc1", "note": "[Example 58, 2-chloro-N-{(2R)-1-(4-cyanophenyl)-3-[(1-methylpiperidin-4-yl)amino]propan-2-yl}-5-[5-({[(1R)-1-(4-methylphenyl)ethyl]amino}methyl)-2-furyl]benzamide]", "IC50": 172}
{"smiles": "Cc1ccc([C@@H](C)NCc2ccc(-c3ccc(Cl)c(C(=O)N[C@@H](CNC4CCN(Cc5ccccc5)CC4)Cc4ccc(C#N)cc4)c3)o2)cc1", "note": "[Example 59]", "IC50": 625}
{"smiles": "Cc1ccc([C@@H](C)NCc2ccc(-c3ccc(Cl)c(C(=O)N[C@@H](CNCc4ccccc4)Cc4ccc(C#N)cc4)c3)o2)cc1", "note": "[Example 60]", "IC50": 1900}
{"smiles": "Cc1ccc([C@@H](C)NCc2ccc(-c3ccc(Cl)c(C(=O)N[C@@H](CNCC(C)C)Cc4ccc(C#N)cc4)c3)o2)cc1", "note": "[Example 61]", "IC50": 798}
{"smiles": "CCN1CCC(NC[C@@H](Cc2ccc(C#N)cc2)NC(=O)c2cc(-c3ccc(CN[C@H](C)c4ccc(C)cc4)o3)ccc2Cl)CC1", "note": "[Example 62]", "IC50": 332}
{"smiles": "Cc1ccc([C@@H](C)NCc2ccc(-c3ccc(Cl)c(C(=O)N[C@@H](CNC4CCN(CC(C)C)CC4)Cc4ccc(C#N)cc4)c3)o2)cc1", "note": "[Example 63]", "IC50": 320}
{"smiles": "Cc1ccc([C@@H](C)NCc2ccc(-c3ccc(Cl)c(C(=O)N[C@@H](CNC4CCN(C(=O)OC(C)(C)C)CC4)Cc4ccc(C#N)cc4)c3)o2)cc1", "note": "[Example 64]", "IC50": 1180}
{"smiles": "Cc1ccc([C@@H](C)NCc2ccc(-c3ccc(Cl)c(C(=O)N[C@@H](CN[C@H]4CCCN(C)C4)Cc4ccc(C#N)cc4)c3)o2)cc1", "note": "[Example 65]", "IC50": 121}
{"smiles": "Cc1ccc([C@@H](C)NCc2ccc(-c3ccc(Cl)c(C(=O)N[C@@H](CNC4CCNCC4)Cc4ccc(C#N)cc4)c3)o2)cc1", "note": "[Example 67]", "IC50": 265}
{"smiles": "Cc1ccc([C@@H](C)NCc2ccc(-c3ccc(Cl)c(C(=O)N[C@@H](CNCC4CCNCC4)Cc4ccc(C#N)cc4)c3)o2)cc1", "note": "[Example 69]", "IC50": 112}
{"smiles": "Cc1ccc([C@@H](C)NCc2ccc(-c3ccc(Cl)c(C(=O)N[C@@H](CNCCC4CCNCC4)Cc4ccc(C#N)cc4)c3)o2)cc1", "note": "[Example 70]", "IC50": 85.8}
{"smiles": "Cc1ccc([C@@H](C)NCc2ccc(-c3ccc(Cl)c(C(=O)N[C@@H](CNC4CCNCC4F)Cc4ccc(C#N)cc4)c3)o2)cc1", "note": "(some centres unmarked) [Example 73]", "IC50": 132}
